Columns and labels:
Assay type in all cases: cell-based
[1] = tested on: human melanoma cell line MNT-1 cells; assay: in vitro melanogenesis / melanin production in MNT-1 cells
Method: In the MNT-1 cell in vitro tests, neferine and liensinine reduced melanin production after seven days by at least 50%, 60%, 70%, 80% or greater at concentrations ranging from 0.1 μM to 5 μM.

[2] = tested on: 3-D dark pigmented epidermis model Melanoderm™ MEL0300B tissue; assay: in vitro melanogenesis in 3-D pigmented epidermis model
[3] = tested on: primary human melanocyes; assay: in vitro melanogenesis in primary melanocytes

Measured: inhibition of melanogenesis

COc1ccc(C[C@@H]2c3cc(Oc4cc(C[C@@H]5c6cc(OC)c(OC)cc6CCN5C)ccc4O)c(OC)cc3CCN2C)cc1 [Neferine, neferine]
significantly inhibit melanogenesis: all assays above

COc1cc2c(cc1OC)[C@@H](Cc1ccc(O)c(Oc3cc4c(cc3OC)CCN(C)[C@@H]4Cc3ccc(O)cc3)c1)N(C)CC2 [liensinine]
significantly inhibit melanogenesis: all assays above

Reference: patent US20240066086A1, “Topical Hyperpigmentation Compositions and Method of Use” (Allergan Sales, LLC, priority 2022, published 2024)
